Test results as given in US7655392B2, “Quenching methods for red blood cell inactivation process” (priority 2004, dated 2010).
Several values for one entry are separate records, joined by “and”; a condition that tells them apart may be missing. Equal values may be shown once.

What was measured:
[1] = Co-formulation of PIC-1 with neutralized glutathione in one solution (observation); assay type: physicochemical; conditions: PIC-1 and 20 mM glutathione neutralized with NaOH in one solution (Table 2A samples 4-6)
From the text: The methods of the invention result in adequate inactivation of possible pathogen contaminants in red blood cell compositions with improved quenching as compared to known methods. […] In some embodiments, the quencher is acidic and is neutralized with 1 to 2 equivalents of a suitable base, such as sodium hydroxide. In a preferred embodiment, the quencher is glutathione neutralized with 2 equivalents of base. In a preferred embodiment, the pathogen inactivating compound comprises an acridine group linked to a mustard group via an ester bond. […] The quencher may be added to the red blood cell composition before, after, or simultaneously with the pathogen inactivating compound. In some embodiments, the quencher is added in the time range of about 30 minutes prior to pathogen inactivating compound up to about 10 minutes following pathogen inactivating compound. In some embodiments, the quencher and pathogen inactivating compound may be added essentially simultaneously but separately. […] Because of the high concentration of glutathione required for adequate quenching, the pathogen inactivating compound precipitates when these are in the same solution in high concentrations. Once added to the red blood cell composition, they are sufficiently diluted and buffered as to both be completely soluble.

[2] = pH of quencher stock and of RBC mixture; assay type: physicochemical; conditions: for pH of stock quencher: room temperature
Method: The effect of various quenching conditions on the pH of a red blood cell composition was determined for various treatment conditions. The quencher solutions were prepared at a concentration of 600 mM in 8% dextrose monohydrate. […] Glutathione was assessed at 2 mM (acidic) or 20 mM (2 eq. of base). […] The pH of the quencher solution, either unmodified or neutralized, was measured using a standard Epoxy Calomel electrode (Beckman Instruments) at room temperature. […] The samples were mixed and the pH at room temperature was measured using the same electrode as described above.
In these, the appropriate amount of 600 mM stock was added, mixed with an appropriate volume of 8% dextrose to provide the same volume addition to each RBC sample where in one study, with varied glutathione concentrations, the pH was measured after adding glutathione and after adding PIC-1. […] Similar samples were also assessed for the inactivation of S. epidermidis. […] For gel card analysis, after incubation, the RBC were washed in BBS and were diluted in BBS to a final hematocrit of 4%. A 25 μL aliquot of each was mixed with 15 μL of rabbit polyclonal anti-acridine sera diluted either 1:4 or 1:100 in BBS and the mixture was incubated at 37° C. for 30 minutes. The cells were subsequently washed with 1.5 mL BBS. After washing was complete, the cells were mixed with goat anti-rabbit Fab′2 fragment anti H+L chains (1:4 dilution in PBS) and incubated at 37° C. for 30 minutes.

O=C(CCNc1c2ccccc2nc2ccccc12)OCCN(CCCl)CCCl [PIC-1]
solubility when formulated together with neutralized glutathione [1]: precipitated out of solution

N[C@@H](CCC(=O)N[C@@H](CS)C(=O)NCC(=O)O)C(=O)O [glutathione, γ-L-glutamyl-L-cysteinyl-glycine]
pH of stock quencher ([2]; 600 mM in 8% dextrose + 1 eq. base): 6.1 | pH of stock quencher ([2]; 600 mM in 8% dextrose + 2 eq. base): 9.5 and 9.2 | pH of stock quencher ([2]; 600 mM in 8% dextrose, no base added): 2.82 and 3.0 | pH of mixture Post quencher ([2]; RBC + 2 mM acidic glutathione): 6.7 | pH of mixture Final ([2]; RBC + 2 mM acidic glutathione + 0.2 mM PIC-1): 6.7 | pH of mixture Post quencher ([2]; RBC + 2 mM glutathione + 1 eq. base): 6.8 | pH of mixture Final ([2]; RBC + 2 mM glutathione + 1 eq. base + 0.2 mM PIC-1): 6.8 | pH of mixture Post quencher ([2]; RBC + 2 mM glutathione + 2 eq. base): 6.8 | pH of mixture Final ([2]; RBC + 2 mM glutathione + 2 eq. base + 0.2 mM PIC-1): 6.8 | pH of mixture Post quencher ([2]; RBC + 5 mM acidic glutathione): 6.6 | pH of mixture Final ([2]; RBC + 5 mM acidic glutathione + 0.2 mM PIC-1): 6.6 | pH of mixture Post quencher ([2]; RBC + 5 mM glutathione + 1 eq. base): 6.7 | pH of mixture Final ([2]; RBC + 5 mM glutathione + 1 eq. base + 0.2 mM PIC-1): 6.7 | pH of mixture Post quencher ([2]; RBC + 5 mM glutathione + 2 eq. base): 6.9 | pH of mixture Final ([2]; RBC + 5 mM glutathione + 2 eq. base + 0.2 mM PIC-1): 6.9 | pH of mixture Post quencher ([2]; RBC + 10 mM acidic glutathione): 6.4 | pH of mixture Final ([2]; RBC + 10 mM acidic glutathione + 0.2 mM PIC-1): 6.4 | pH of mixture Post quencher ([2]; RBC + 10 mM glutathione + 1 eq. base): 6.7 | pH of mixture Final ([2]; RBC + 10 mM glutathione + 1 eq. base + 0.2 mM PIC-1): 6.7 | pH of mixture Post quencher ([2]; RBC + 10 mM glutathione + 2 eq. base): 7.2 | pH of mixture Final ([2]; RBC + 10 mM glutathione + 2 eq. base + 0.2 mM PIC-1): 7.0 | pH of mixture Post quencher ([2]; RBC + 20 mM acidic glutathione): 6.1 | pH of mixture Final ([2]; RBC + 20 mM acidic glutathione + 0.2 mM PIC-1): 6.1 | pH of mixture Post quencher ([2]; RBC + 20 mM glutathione + 1 eq. base): 6.7 | pH of mixture Final ([2]; RBC + 20 mM glutathione + 1 eq. base + 0.2 mM PIC-1): 6.7 | pH of mixture Post quencher ([2]; RBC + 20 mM glutathione + 2 eq. base): 7.4 | pH of mixture Final ([2]; RBC + 20 mM glutathione + 2 eq. base + 0.2 mM PIC-1): 7.2 | pH of final mixture ([2]; Table 10: RBC + 2 mM acidic quencher + 0.2 mM PIC-1): 6.9 | pH of final mixture ([2]; Table 10: RBC + 20 mM quencher + 2 eq. base + 0.2 mM PIC-1): 7.7 | pH of solution ([2]; glutathione solution neutralized with 2 equivalents of sodium hydroxide): approximately 9.5 | pH of solution ([2]; solution of the protonated glutathione): approximately 3
